# Results: patent publication US20260109707A1, “HETEROBIFUNCTIONAL COMPOUNDS AND METHODS OF TREATING DISEASE” (Halda Therapeutics OpCo. Inc., priority 2022, published 2026)
# pIC50, pKd: −log10 of the molar value.
# What was measured:
# [1] = target: T1, BRD4-BD1 (Homo sapiens, UniProt O60885); assay: bromoKdELECT assay for binding affinity to BRD4-BD1; conditions: binding to BRD4-BD1, Table 4
# T1 construct: made in house; host or cells: T7 phage grown in an E. coli host derived from the BL21 strain
# Protocol: (§1) Compounds were tested using a bromoKdELECT assay. T7 phage strains displaying bromodomains were grown in parallel in 24-well blocks in an E. coli host derived from the BL21 strain. E. coli were grown to log-phase and infected with T7 phage from a frozen stock (multiplicity of infection=0.4) and incubated with shaking at 32° C. until lysis (90-150 minutes). The lysates were centrifuged (5,000×g) and filtered (0.2 μm) to remove cell debris. Streptavidin-coated magnetic beads were treated with biotinylated small molecule or acetylated peptide ligands for 30 minutes at room temperature to generate affinity resins for bromodomain assays. The liganded beads were blocked with excess biotin and washed with blocking buffer (SeaBlock (Pierce), 1% BSA, 0.05% Tween 20, 1 mM DTT) to remove unbound ligand and to reduce nonspecific phage binding. Binding reactions were assembled by combining bromodomains, liganded affinity beads, and test compounds in 1× binding buffer (17% SeaBlock, 0.33×PBS, 0.04% Tween 20, 0.02% BSA, 0.004% Sodium azide, 7.4 mM DTT). Test compounds were prepared as 1000× stocks in 100% DMSO. Kds were determined using an 11-point 3-fold compound dilution series with one DMSO control point. All compounds for Kd measurements are distributed by acoustic transfer (non-contact dispensing) in 100% DMSO. The compounds were then diluted directly into the assays such that the final concentration of DMSO was 0.09%. All reactions performed in polypropylene 384-well plates. Each was a final volume of 0.02 ml. The assay plates were incubated at room temperature with shaking for 1 hour and the affinity beads were washed with wash buffer (1×PBS, 0.05% Tween 20). The beads were then resuspended in elution buffer (1×PBS, 0.05% Tween […] non-biotinylated affinity ligand) and incubated at room temperature with shaking for 30 minutes. The bromodomain concentration in the eluates was measured by qPCR.
# [2] = target: T2, progesterone receptor (Homo sapiens, UniProt P06401); assay: PR Human Progesterone NHR Binding (Agonist Radioligand) Assay; conditions: binding to the progesterone receptor, cytosolic fractions of T47D cells, Table 12
# T2 sequence (P06401 679-933 limits assumed): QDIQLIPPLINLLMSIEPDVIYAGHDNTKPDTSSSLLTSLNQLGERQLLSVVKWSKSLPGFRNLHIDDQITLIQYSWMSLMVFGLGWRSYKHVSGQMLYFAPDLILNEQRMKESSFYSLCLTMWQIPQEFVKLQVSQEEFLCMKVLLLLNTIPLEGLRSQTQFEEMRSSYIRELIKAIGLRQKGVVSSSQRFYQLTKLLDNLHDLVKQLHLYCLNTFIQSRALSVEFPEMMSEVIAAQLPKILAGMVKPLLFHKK
# Protocol: Compounds were tested using the PR Human Progesterone NHR Binding (Agonist Radioligand) Assay, Cerep at Eurofins Discovery using a modified version of the protocol from Sarup et al. (Cancer Res 1988; 48:5071-5078). Briefly, cytosolic fractions of T47D cells were incubated with 0.5 nM [^3H]progesterone for 1 hour at 4° C. in the absence or presence of the test compound. Nonspecific binding was determined in the presence of 1 μM promegestone. Reactions were subjected to scintillation counting. Results are expressed as a percent inhibition of the control radioligand specific binding.
# [3] = target: T3, progesterone receptor ligand binding domain (LBD) (Homo sapiens, UniProt P06401); assay: FP assay for binding affinity to progesterone receptor (PolarScreen Progesterone Receptor Competitor Assay Kit); conditions: fluorescence polarization, GST-tagged PR LBD, Table 13
# T3 construct: GST-tagged PR LBD, Fluormone tracer, and compound were mixed and incubated for 2 hours; purchased Life Technologies A15905 or a15906
# T3 sequence (P06401 679-913 limits assumed): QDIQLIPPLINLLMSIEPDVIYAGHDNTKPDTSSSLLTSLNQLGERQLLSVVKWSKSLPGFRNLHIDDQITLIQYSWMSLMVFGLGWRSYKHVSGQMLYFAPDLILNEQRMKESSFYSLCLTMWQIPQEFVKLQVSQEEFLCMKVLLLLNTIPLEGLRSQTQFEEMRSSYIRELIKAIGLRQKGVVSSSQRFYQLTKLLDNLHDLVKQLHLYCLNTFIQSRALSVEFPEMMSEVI
# Protocol: Compounds were tested using the PolarScreen™ Progesterone Receptor Competitor Assay Kit (Life Technologies Cat #A15905 or a15906), as per the manufacturer's instructions. Briefly, GST-tagged PR LBD, Fluormone tracer, and compound were mixed and incubated for 2 hours at room temperature in the dark. Following incubation, the plates were spun at 3000×g for 30 seconds, then sealed with an optical adhesive cover, and fluorescence polarization was measured using appropriate excitation and emission filters with an EnVision Plate Reader (Perkin Elmer). Compound concentration vs. mP value were plotted in Prism (GraphPad). A four-parameter non-linear regression curve fit was applied to dose-response data to determine the half-maximal inhibitory concentration (IC50) for each test compound.
# [4] = target: T4, BRD4-BD2 (Homo sapiens, UniProt O60885); assay: bromoKdELECT assay for binding affinity to BRD4-BD2; conditions: binding to BRD4-BD2, Table 5
# T4 construct: made in house; host or cells: T7 phage grown in an E. coli host derived from the BL21 strain
# Protocol: as §1, with “[…])” for “μm)”
pKd [1],pKd [2],pIC50 [3],pKd [4],SMILES
6.30 to 7.30,–,–,–,"Cc1sc2c(c1C)C(c1ccc(Cl)cc1)=N[C@@H](CC(=O)NCCOC1CCN(c3ccc(C(=O)N[C@H]4CC[C@H](Oc5ccc(C#N)c(Cl)c5)CC4)nn3)CC1)c1nnc(C)n1-2 [I-1, N-[4-(3-chloro-4-cyano-phenoxy)cyclohexyl]-6-[4-[2-[[2-[(9S)-7-(4-chlorophenyl)-4,5,13-trimethyl-3-thia-1,8,11,12-tetrazatricyclo[8.3.0.0^2,6]trideca-2(6),4,7,10,12-pentaen-9-yl]acetyl]amino]ethoxy]-1-piperidyl]pyridazine-3-carboxamide]"
–,6.30 to 7.30,6.30 to 7.30,–,"Cc1sc2c(c1C)C(c1ccc(Cl)cc1)=N[C@@H](CC(=O)NCCOCCOCCOC1CCN(c3ccc(C(=O)N[C@H]4CC[C@H](Oc5ccc(C#N)c(Cl)c5)CC4)nn3)CC1)c1nnc(C)n1-2 [I-2, N-[4-(3-chloro-4-cyano-phenoxy)cyclohexyl]-6-[4-[2-[2-[2-[[2-[(9S)-7-(4-chlorophenyl)-4,5,13-trimethyl-3-thia-1,8,11,12-tetrazatricyclo[8.3.0.0^2,6]trideca-2(6),4,7,10,12-pentaen-9-yl]acetyl]amino]ethoxy]ethoxy]ethoxy]-1-piperidyl]pyridazine-3-carboxamide]"
6.30 to 7.30,–,–,> 7.30,CCNC(=O)C[C@@H]1N=C(c2ccc(CCCOC3CCN(c4ccc(C(=O)N[C@H]5CC[C@H](Oc6ccc(C#N)c(Cl)c6)CC5)nn4)CC3)cc2)c2c(sc(C)c2C)-n2c(C)nnc21 [I-17]

# Further lines, the compound ahead of its results:
SMILES,pKd [1],pKd [2],pIC50 [3],pKd [4]
CCNC(=O)C[C@@H]1N=C(c2ccc(CC3CCN(c4ccc(C(=O)N[C@H]5CC[C@H](Oc6ccc(C#N)c(Cl)c6)CC5)nn4)CC3)cc2)c2c(sc(C)c2C)-n2c(C)nnc21 [I-20],6.30 to 7.30,–,–,6.30 to 7.30
CCNC(=O)C[C@@H]1N=C(c2ccc(N3CC4(C3)CN(c3ccc(C(=O)N[C@H]5CC[C@H](Oc6ccc(C#N)c(Cl)c6)CC5)nn3)C4)cc2)c2c(sc(C)c2C)-n2c(C)nnc21 [I-24],6.30 to 7.30,–,–,6.30 to 7.30
CCNC(=O)C[C@@H]1N=C(c2ccc(OCC3CN(c4ccc(C(=O)N[C@H]5CC[C@H](Oc6ccc(C#N)c(Cl)c6)CC5)nn4)C3)cc2)c2c(sc(C)c2C)-n2c(C)nnc21 [I-29],–,6.30 to 7.30,–,–
CCNC(=O)C[C@@H]1N=C(c2ccc(N3CCC(OC4CCN(c5ccc(C(=O)N[C@H]6CC[C@H](Oc7ccc(C#N)c(Cl)c7)CC6)nn5)CC4)CC3)cc2)c2c(sc(C)c2C)-n2c(C)nnc21 [I-44],6.30 to 7.30,6.30 to 7.30,–,6.30 to 7.30
